Results on 21 compounds are retold here after US10874743B2, “IRAK degraders and uses thereof” (Kymera Therapeutics, Inc., priority 2017, dated 2020).

A value given as a limit tells only on which side of the number the result lay.

For this experiment, the target named is T1, IRAK4 (Homo sapiens, UniProt Q9NWZ3).
T1 sequence (Q9NWZ3 1-460): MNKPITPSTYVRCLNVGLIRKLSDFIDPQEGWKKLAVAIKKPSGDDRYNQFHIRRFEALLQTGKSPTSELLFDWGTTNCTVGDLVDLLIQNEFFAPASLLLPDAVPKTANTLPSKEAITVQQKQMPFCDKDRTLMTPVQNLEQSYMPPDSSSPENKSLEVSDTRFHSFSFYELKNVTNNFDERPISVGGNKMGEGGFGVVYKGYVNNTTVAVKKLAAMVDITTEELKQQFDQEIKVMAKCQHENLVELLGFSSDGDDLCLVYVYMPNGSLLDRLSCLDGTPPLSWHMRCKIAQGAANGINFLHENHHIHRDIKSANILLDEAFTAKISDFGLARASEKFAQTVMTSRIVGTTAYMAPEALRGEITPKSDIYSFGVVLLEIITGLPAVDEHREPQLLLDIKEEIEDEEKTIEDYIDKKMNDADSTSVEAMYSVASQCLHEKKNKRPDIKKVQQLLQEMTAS
Nature of the experiment: OCI-LY-10 MSD assay for IRAK4 DC50. Type of experiment: cell-based. Also on record: endogenous in cells; host or cells: OCI-LY10. The settings on record: OCI-LY10 cells, 4 hr incubation, concentration required to degrade 50% of protein. On the procedure:
A MSD assay was run to determine the concentration of compound required to degrade 50% of protein (DC50).
Day 1 • Compounds were reconstituted to 10 mM in stock solutions. The stock solutions were diluted to 5 mM and 45 μL of each dilution was transferred to a 384 pp-plate. A 3 fold, 8-point serial dilution was performed by transferring 15 μL of compound into 30 μL DMSO using Janus. • 20 nL of each compounds were added into each well of a 96-well plate (Corning3799). • OCI-Ly10 cells were seeded into the 96-well plate at 3.0*10e^5 cells/100 μL/well. • The cell plate was shaken at 720 rpm for 5 min and incubated for 4 hr. • The 100 μL of cells were transferred into the 96-PCR plate and spun down at high speed for 5 mins. • The supernatant was discarded and 100 μL of RIPA lysis buffer with proteinase inhibitors was added per well. The plate was then sealed and shaken at 600 rpm and 4° C. for about 20 min. • The plate was then spun down at high speed (about 3200 g) for 30 min and then frozen in a −80° C. fridge. • A bare MSD plate (L15XA-3) was coated with 2 μg/mL of capture antibody (mouse Anti-IRAK4 antibody [2H9], ab119942) in PBS to 40 μL/well and incubated overnight at 4° C.
Day 2 • The MSD coated plate was washed 3× (150 μL/well) with 1×TBST (CST #9997S). • The MSD plate was then blocked with 150 μL of blocking buffer [3% Blocker A (MSD, R93BA-4) in TBST]/well and shaken for 1 hr at R^† and 600 rpm. • The MSD plate was washed 3× (150 μL/well) with 1×TBST. The sample RIPA lysates were then added to the MSD plate (50 μL/well) and shaken for 1 hr at R^† and 600 rpm. • The MSD plate was washed 3× (150 μL/well) with 1×TBST and the primary detection antibody (Rabbit Anti-IRAK4 antibody [Y279], ab32511) was added to a final concentration of 1 μg/ml with 25 μL/well. The plate was then shaken for 1 hr at RT and 600 rpm. • The MSD plate was washed 3× (150 μL/well) with 1×TBST and the secondary detection antibody, SULFO-TAG anti-species antibody (Anti Rabbit Antibody (R32AB-5) MSD, R32AB-1) was added to a volume of 25 μL/well at a final concentration of 1 jag/ml. The plate was then shaken for 1 hr at RT and 600 rpm. • The MSD plate was then washed 3× (150 μL/well) with 1×TBST. • lx MSD reading buffer was then added (150 μL/well) and the plate was diluted with 4× water. (MSD, R92TC-2) • The MSD instrument was then read.
Data Analysis • The remaining activity was calculated following the formula below:
Calculate • The DC50 was calculated by fitting the Curve using Xlfit (v5.3.1.3), equation 201: Y=Bottom+(Top−Bottom)/(1+10^((Log IC50−X)*HillSlope))
OCI-LY-10 DC50 results. The letter codes for IRAK4 DC50 indicate the concentration of compound required to degrade 50% of protein: A (<0.05 μM), B (0.05-0.1 μM), C (0.1-0.5 μM), D (0.5-1.0 μM), and E (>1.0 μM).
`Cn1c(=O)n(C2CCC(=O)NC2=O)c2ccc(CCCOCCC(=O)N3CCN(C4CCC(Nc5ncnn6ccc(C7CCOCC7)c56)CC4)CC3)cc21` (stereo not drawn) [I-437, 3-[3-Methyl-2-oxo-5-[3-[3-oxo-3-[4-[4-[(5-tetrahydropyran-4-ylpyrrolo[2,1-f][1,2,4]triazin-4-yl)amino]cyclohexyl]piperazin-1-yl]propoxy]propyl]benzimidazol-1-yl]piperidine-2,6-dione] displayed a DC50 of over 1000 nM.
With `Cn1c(=O)n(C2CCC(=O)NC2=O)c2cccc(CCCOCCOCCOCCOCCN[C@H]3CC[C@H](Nc4ncnc5[nH]cc(C6CCOCC6)c45)CC3)c21` (stereo partly drawn) [I-442, 3-[3-Methyl-2-oxo-4-[3-[2-[2-[2-[2-[[4-[(5-tetrahydropyran-4-yl-7H-pyrrolo[2,3-d]pyrimidin-4-yl)amino]cyclohexyl]amino]ethoxy]ethoxy]ethoxy]ethoxy]propyl]benzimidazol-1-yl]piperidine-2,6-dione], the DC50 was over 1000 nM.
To `NC(=O)c1nn(-c2ccc(CNCCCOCCCNc3cccc4c3C(=O)N(C3CCC(=O)NC3=O)C4=O)cc2)cc1NC(=O)c1coc(-c2ccnc(NCC3CC3)c2)n1` (stereo not drawn) [I-399] belongs under 50 nM; to `Cn1c(=O)n(C2CCC(=O)NC2=O)c2ccc(CCCCOCCCCNCc3ccc(-n4cc(NC(=O)c5coc(-c6ccnc(NCC7CC7)c6)n5)c(C(F)F)n4)cc3)cc21` (stereo not drawn) [I-411, 2-[2-(cyclopropylmethylamino)-4-pyridyl]-N-[3-(difluoromethyl)-1-[4-[[4-[4-[1-(2,6-dioxo-3-piperidyl)-3-methyl-2-oxo-benzimidazol-5-yl]butoxy]butylamino]methyl]phenyl]pyrazol-4-yl]oxazole-4-carboxamide], under 50 nM.
To `Cn1cc(NC(=O)c2coc(-c3ccnc(NCC(F)(F)F)c3)n2)c(CNCCOCCOCCOCCNc2cccc3c2C(=O)N(C2CCC(=O)NC2=O)C3=O)n1` (stereo not drawn) [I-408] belongs over 1000 nM; to `O=C1CCC(N2C(=O)c3cccc(NC4CCN(CCOCCNC(=O)c5ccc(-n6cc(NC(=O)c7coc(-c8ccnc(NCC9CC9)c8)n7)c(C(F)F)n6)cc5)CC4)c3C2=O)C(=O)N1` (stereo not drawn) [I-268], under 50 nM.
To `Cn1cc(NC(=O)c2coc(-c3cccnc3NCCOCCOCCOCCNc3cccc4c3C(=O)N(C3CCC(=O)NC3=O)C4=O)n2)c(C(F)F)n1` (stereo not drawn) [I-432, N-[3-(difluoromethyl)-1-methyl-pyrazol-4-yl]-2-[2-[2-[2-[2-[2-[[2-(2,6-dioxo-3-piperidyl)-1,3-dioxo-isoindolin-4-yl]amino]ethoxy]ethoxy]ethoxy]ethylamino]-3-pyridyl]oxazole-4-carboxamide] belongs over 1000 nM.
For the compound `Cc1ncsc1-c1ccc(CNC(=O)[C@@H]2C[C@@H](O)CN2C(=O)[C@@H](NCCOCCOCCOCCNC(=O)C2CCC(n3cc(NC(=O)c4coc(-c5ccnc(NCC(F)(F)F)c5)n4)c(C(N)=O)n3)CC2)C(C)(C)C)cc1` (stereo partly drawn) [I-293], the half-maximal degradation concentration (DC50) was over 1000 nM.
Then `O=C1CCC(N2C(=O)c3cccc(NCCOCCOCCNC(=O)c4ccc(-n5cc(NC(=O)c6coc(-c7ccnc(NCC(F)(F)F)c7)n6)c(C(F)F)n5)cc4)c3C2=O)C(=O)N1` (stereo not drawn) [I-261], with 100 to 500 nM; and `O=C1CCC(N2C(=O)c3cccc(N4CCN(CCOCCOCCNC(=O)c5ccc(-n6cc(NC(=O)c7coc(-c8ccnc(NCC9CC9)c8)n7)c(C(F)F)n6)cc5)CC4)c3C2=O)C(=O)N1` (stereo not drawn) [I-273], with 50 to 100 nM; and `Cc1ncsc1-c1ccc(CNC(=O)[C@@H]2C[C@@H](O)CN2C(=O)[C@@H](NCCOCCOCCOCCNCc2ccc(-n3cc(NC(=O)c4coc(-c5ccnc(NCC(F)(F)F)c5)n4)c(C(N)=O)n3)cc2)C(C)(C)C)cc1` [I-415], with over 1000 nM.
To `Cn1c(=O)n(C2CCC(=O)NC2=O)c2cccc(CCCOCCOCCOCCOCC(=O)N[C@H]3CC[C@H](Nc4ncnc5[nH]cc(C6CCOCC6)c45)CC3)c21` (stereo partly drawn) [I-440, 2-[2-[2-[2-[3-[1-(2,6-Dioxo-3-piperidyl)-3-methyl-2-oxo-benzimidazol-4-yl]propoxy]ethoxy]ethoxy]ethoxy]-N-[4-[(5-tetrahydropyran-4-yl-7H-pyrrolo[2,3-d]pyrimidin-4-yl)amino]cyclohexyl]acetamide] belongs over 1000 nM; to `Cn1c(=O)n(C2CCC(=O)NC2=O)c2ccc(CCCCCCC(=O)N3CCN(C4CCC(Nc5ncnn6ccc(C7CCOCC7)c56)CC4)CC3)cc21` (stereo not drawn) [I-438], over 1000 nM; to `Cn1c(=O)n(C2CCC(=O)NC2=O)c2cccc(CCCOCC(C)(C)COCCCNCc3ccc(-n4cc(NC(=O)c5coc(-c6ccnc(NCC7CC7)c6)n5)c(C(F)F)n4)cc3)c21` (stereo not drawn) [I-419], 100 to 500 nM.
Then `O=C1CCC(N2C(=O)c3ccc(NC4CCN(CCOCCNC(=O)c5ccc(-n6cc(NC(=O)c7coc(-c8ccnc(NCC9CC9)c8)n7)c(C(F)F)n6)cc5)CC4)cc3C2=O)C(=O)N1` (stereo not drawn) [I-271], with 100 to 500 nM.
The compound `Cc1ncsc1-c1ccc(CNC(=O)[C@@H]2C[C@@H](O)CN2C(=O)[C@@H](NCCOCCOCCOCCNCc2nn(C)cc2NC(=O)c2coc(-c3ccnc(NCC(F)(F)F)c3)n2)C(C)(C)C)cc1` [I-413] showed a DC50 of over 1000 nM.
To `Cn1c(=O)n(C2CCC(=O)NC2=O)c2ccc(CCCOCCOCCOCCOCC(=O)N3CCN(C4CCC(Nc5ncnc6[nH]cc(C7CCOCC7)c56)CC4)CC3)cc21` (stereo not drawn) [I-447, 3-[3-Methyl-2-oxo-5-[3-[2-[2-[2-[2-oxo-2-[4-[4-[(5-tetrahydropyran-4-yl-7H-pyrrolo[2,3-d]pyrimidin-4-yl)amino]cyclohexyl]piperazin-1-yl]ethoxy]ethoxy]ethoxy]ethoxy]propyl]benzimidazol-1-yl]piperidine-2,6-dione] belongs 50 to 100 nM.
Then `CC(C)(C)[C@H](NC(=O)COCCOCCOCCNc1cccc2c1C(=O)N(C1CCC(=O)NC1=O)C2=O)C(=O)N1C[C@H](OC(=O)[C@@H]2CCCN2)C[C@H]1C(=O)NCc1ccc(-n2cc(NC(=O)c3coc(-c4ccnc(NCC5CC5)c4)n3)c(C(F)F)n2)cc1` (stereo partly drawn) [I-286, [(3R,5S)-5-[[4-[4-[[2-[2-(cyclopropylmethylamino)-4-pyridyl]oxazole-4-carbonyl]amino]-3-(difluoromethyl)pyrazol-1-yl]phenyl]methylcarbamoyl]-1-[(2S)-2-[[2-[2-[2-[2-[[2-(2,6-dioxo-3-piperidyl)-1,3-dioxo-isoindolin-4-yl]amino]ethoxy]ethoxy]ethoxy]acetyl]amino]-3,3-dimethyl-butanoyl]pyrrolidin-3-yl](2S)-pyrrolidine-2-carboxylate], with over 1000 nM; and `Cc1ncsc1-c1ccc(CNC(=O)[C@@H]2C[C@@H](O)CN2C(=O)[C@@H](NC(=O)COCCOCCOCCNCc2ccc(-n3cc(NC(=O)c4coc(-c5ccnc(NCC(F)(F)F)c5)n4)c(C(N)=O)n3)cc2)C(C)(C)C)cc1` [I-414], with 100 to 500 nM.
To `Cn1cc(NC(=O)c2coc(-c3ccncc3)n2)c(C(=O)NCCOCCOCCOCCNc2cccc3c2C(=O)N(C2CCC(=O)NC2=O)C3=O)n1` (stereo not drawn) [I-301] belongs over 1000 nM; to `Cn1c(=O)n(C2CCC(=O)NC2=O)c2cccc(CCCOCCOCCNC(=O)c3ccc(-n4cc(NC(=O)c5coc(-c6ccnc(NCC7CC7)c6)n5)c(C(F)F)n4)cc3)c21` (stereo not drawn) [I-253], under 50 nM.

What is called DC50 is the concentration at which degradation of the target reaches its halfway point. Low readings indicate a more potent degrader, high ones a less potent degrader.
